Data reported in article PMC4452638, “Synthesis and preclinical evaluation of DOTAGA-conjugated PSMA ligands for functional imaging and endoradiotherapy of prostate cancer” (EJNMMI Research, 2014).

Key:
[1] = tested on: PSMA-expressing LNCaP cells; assay: Internalization studies / cell binding in LNCaP cells; assay type: cell-based, human; details: 68Ga compounds, c = 0.2 nM, 37°C, 1 h, 125,000 cells/well, corrected for unspecific binding
Description: Cell culture: PSMA^+ LNCaP cells (CLS: 300265) were grown in DMEM/Nutrition Mix F-12 with Glutamax-I (1:1) (Invitrogen, Life Technologies, Darmstadt, Germany) supplemented with 10% FCS. Cultures were maintained at 37°C in a 5% CO2/humidified air atmosphere. One day prior to the experiment, cells were harvested using Trypsin/EDTA (0.05% and 0.02%) in PBS, centrifuged and resuspended with culture medium. For cell counting, a Countesse automated cell counter (Invitrogen, Carlsbad, USA) was used. All in vitro binding and internalization studies were performed using live cells seeded 1 day prior to the experiment. For IC50 determination, 150,000 cells/mL were transferred to 24-well plates (1 mL/well), and for internalization studies, 125,000 cells/mL were transferred into PLL-coated 24-well plates.
Internalization studies: The culture medium was removed, and the cells were washed once with 500 μL DMEM-F12 (5% BSA) before being left to equilibrate in 200 μL DMEM-F12 (5% BSA) at 37°C for a minimum of 15 min. Then, 25 μL (per well) of either DMEM-F12 (5% BSA) or of a 100-μM PMPA solution (blocking) was added, followed by the addition of 25 μL of ^68Ga/^177Lu-labelled PSMA ligand. The final radioligand concentration was 0.2/0.5 nM in all internalization assays. To determine internalization kinetics, cells were then incubated at 37°C for 5, 15, 30 and 60 min, respectively. Experiments were carried out in triplicate for each time point (control and blocking). Incubation was terminated by placing the plate on ice for approximately 1 min and by subsequent removal of the incubation medium. Cells were thoroughly rinsed with 250 μL of PBS. The wash medium was combined with the supernatant of the previous step. This fraction represents the amount of free radioligand. To remove receptor surface bound radioactivity, the cells were then incubated for 10 min with 250 μL of ice cold PMPA solution (10 μM in PBS). After removal of the supernatant, the cells were thoroughly rinsed with another 250 μL of ice cold PBS. Both fractions were combined. The internalized activity was released by incubation with 250 μL of 1 N NaOH, transferred to vials and combined with 250 μL of 1 N NaOH used for rinsing the wells. Quantification of the amount of free, PMPA-releasable and internalized activity was performed in a γ-counter.
The cellular uptake and internalization kinetics of the different ^68Ga- and ^177Lu-labelled PSMA ligands was determined using PSMA-expressing LNCaP cells. In the case of the ^68Ga-labelled compounds, the final peptide concentration in the assays was 0.2 nM. […] All internalization studies were accompanied by reference studies using ([^125I]I-BA)KuE (c = 0.2 nM). This experimental setup allows data normalization and eliminates the influence of cell count and cell viability on absolute cellular tracer uptake. […] Furthermore, to be able to discriminate between total cellular activity (sum of membrane associated and internalized activity) and internalized activity, all incubations were followed by a washing step with 10 μM PMPA at 4°C to remove specifically cell-surface bound radioligand by displacement.

[2] = Determination of lipophilicity (shake flask, n-octanol/PBS); assay type: physicochemical
Description: To a solution of 0.5 to 1 MBq of radiolabelled peptide in 500 μl of phosphate-buffered saline (PBS, pH 7.4), 500 μl of n-octanol was added (n = 6). Vials were vortexed vigorously for 3 min. To achieve quantitative phase separation, the vials were centrifuged at 6,000 g for 5 min in a Biofuge 15 (Heraeus Sepatech, Osterode, Germany). The activity concentrations in 100 μl-samples of both the aqueous and the organic phase were measured in a γ-counter. Both the partition coefficient P(o/w), which is defined as the molar concentration ratio of a single species A between n-octanol and water at equilibrium, and logP(o/w), which is an important parameter used to characterize lipophilicity of a compound, were calculated.
The partition coefficient logP between n-octanol and PBS was determined for the compounds listed in Table 3 using the shake flask method. All compounds are highly hydrophilic, with the DOTAGA compounds being up to one order of magnitude more hydrophilic than the corresponding DOTA analogues. Amongst all compounds tested, [^68Ga]HBED-CC-Ahx-KuE was the most hydrophilic compound.

[3] = In vivo metabolite analysis by radio-HPLC; details: CD-1 nu/nu mice, 0.5 h p.i.
Description: ^177Lu-10 and ^177Lu-11 were incubated in 80 μL of human serum (37°C) and 80 μL 0.4 M DTPA solution (RT), respectively and after 1, 24 and 48 h, the stability was determined by TLC analysis. The ^68Ga-labelled tracers (40 to 45 MBq) were injected into the tail vein of CD-1 nu/nu mice. The animals were sacrificed after 30 min, and urine, blood and kidney samples were taken. The kidney was frozen in liquid nitrogen, homogenized with a ball mill and extracted with 0.2 to 1 mL PBS containing 200 nmol 2-(phosphonomethyl)pentane-1,5-dioic acid (PMPA). The suspension was first centrifuged (15,000 g), and after ultrafiltration, the extracts were analysed by RP-HPLC. The blood samples were centrifuged to separate the plasma from the blood cells. Plasma proteins were removed by precipitation with acetonitrile (10 min, 4°C) and subsequent centrifugation and ultrafiltration. The blood extract was also analysed by RP-HPLC.
To investigate the influence of the amino acid composition of the spacer (KFF vs kff) on the metabolic stability in vivo, tissue homogenates and body fluids of mice injected with ^68Ga-11 and ^68Ga-12 were analysed by radio-HPLC. Extraction efficiencies from the blood and from the kidney were 56% and 43% for ^68Ga-11 and 61% and 62% for ^68Ga-12, respectively.

LNCaP tumour xenograft = assay: Biodistribution in LNCaP-tumour-bearing mice; assay type: in vivo; details: LNCaP-tumour bearing CD-1 nu/nu mice, 1 h p.i.
Description: All animal experiments were conducted in accordance with general animal welfare regulations in Germany (Deutsches Tierschutzgesetz, approval #55.2-1-54-2532-71-13). The prostate cancer cell line LNCaP was suspended 1/1 in serum-free medium and Matrigel (BD Biosciences, Germany) and approximately 10^7 cells in 200 μL were inoculated subcutaneously on the right shoulder of 6 to 8 weeks old CD-1 nu/nu mice (Charles River Laboratories). Tumours were grown for 2 to 4 weeks (males) and 4 to 6 weeks (females) to reach 4 to 8 mm in diameter.
Biodistribution: The ^68Ga-labelled PSMA ligands (approximately 7 to 15 MBq, 0.1 to 0.2 nmol) were injected into the tail vein of isoflurane anesthetized animals. The organ distribution was examined 1 h p.i. and quantified in a γ-counter.
A comparison of the biodistribution of compounds ^68Ga-11, ^68Ga-12 and the reference [^68Ga]HBED-CC-Ahx-KuE in LNCaP-tumour-bearing CD-1 nu/nu mice (1 h p.i.) is shown in Figure 7.

Substance | Internalization (1 h) in % of ([125I]I-BA)KuE [1] [%] | log P (o/w) ([2]; n-octanol/PBS, listed for 11/12 but determined for the FFK analogue 11 only (footnote a)) | Intact tracer in blood [3] [%] | Kidney accumulation (LNCaP tumour xenograft) [% ID/g] | Tracer uptake into liver (LNCaP tumour xenograft) [% ID/g] | Tracer uptake into lung (LNCaP tumour xenograft) [% ID/g] | Tracer uptake into pancreas (LNCaP tumour xenograft) [% ID/g] | Tracer uptake into spleen (LNCaP tumour xenograft) [% ID/g] | Tumour-to-blood ratio (LNCaP tumour xenograft) | Tumour-to-skeletal muscle ratio (LNCaP tumour xenograft) | Uptake in gastrointestinal tract (LNCaP tumour xenograft) [% ID/g] | Uptake into LNCaP tumour xenograft (LNCaP tumour xenograft) [% ID/g] | log P (o/w) ([2]; n-octanol/PBS pH 7.4, mean ± SD (n = 6))
[^68Ga]DOTAGA-ffk(Sub-KuE) [^68Ga-12] | 42.5 ± 1.7 | −3.6 ± 0.1 | 100 | 96 ± 45 | 0.2 ± 0.04 | 1.1 ± 0.3 | 0.4 ± 0.1 | 5.5 ± 0.2 | 17.0 ± 0.5 | 19.8 ± 0.7 | < 0.5 | 5.2 ± 1.2 | 
[^68Ga]DOTAGA-FFK(Sub-KuE) [^68Ga-11] | 28.4 ± 0.7 |  | 21 |  |  |  |  |  |  |  |  |  | −3.6 ± 0.1
